This passage reports TGI results from PubChem BioAssay (NCI).

Test systems include TK-10 renal; NCI-H226 lung; HCC-2998 colon; BT-549 breast; CCRF-CEM leukemia; SNB-75 CNS; NCI/ADR-RES ovarian; UACC-257 melanoma; KM12 colon; HOP-92 NSCLC; IGROV1 ovarian; RPMI-8226 leukemia.
What all share (test): NCI-60 cell line screen, 48 h

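In this assay, cells in 96-well plates receive the compound at five concentrations for 48 hours. Endpoints are linearly interpolated between the surrounding concentrations. TGI is the concentration that stops growth completely.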

On to `CCOC(=O)CCC(NC(=O)Cc1ccc(Nc2nc3cc(F)c(F)cc3nc2C(=O)OCC)cc1)C(=O)OCC` (stereo not given), for which the TGI was > 100 µM in the assay with TK-10 renal; > 100 µM in the assay on NCI-H226 lung; > 100 µM with HCC-2998 colon; > 100 µM in the assay with BT-549 breast; 46.9 µM with CCRF-CEM leukemia; 77.2 µM in the assay on SNB-75 CNS. The TGI is > 100 µM in the assay on NCI/ADR-RES ovarian, > 100 µM in the assay on UACC-257 melanoma, > 100 µM in the assay on KM12 colon and 82.1 µM in the assay with HOP-92 NSCLC.

As for `O=C1c2cccc3c2C(=O)c2c(cccc21)OCCOCCOCCOCCO3`, the TGI with IGROV1 ovarian, in the assay on TK-10 renal, with RPMI-8226 leukemia, with NCI-H226 lung, with HCC-2998 colon and in the assay on CCRF-CEM leukemia was > 100 µM throughout. The TGI with SNB-75 CNS and with UACC-257 melanoma was > 100 µM in each case.

Turning to `COc1cc2c(cc1OC)C(CC1=C(c3ccccc3)CN3CCc4cc(OC)c(OC)cc4C3C1)NCC2` (stereo not given), the TGI in the assay with IGROV1 ovarian turned out to be 32.8 µM; in the assay with TK-10 renal, 32.7 µM; in the assay with RPMI-8226 leukemia, 28.8 µM; in the assay on NCI-H226 lung, 37.2 µM; in the assay with HCC-2998 colon it was 22.7 µM; in the assay on CCRF-CEM leukemia it was 37.6 µM. For the same molecule, the TGI with SNB-75 CNS was found to be 28 µM; in the assay on UACC-257 melanoma, 34.3 µM; in the assay with KM12 colon it was 39.1 µM.

Regarding `C=CCc1c(O)c2c(c3oc(=O)cc(C)c13)CC(C)O2` (stereo not given), the TGI in the assay with IGROV1 ovarian, in the assay on TK-10 renal, with RPMI-8226 leukemia, with NCI-H226 lung, in the assay on HCC-2998 colon and with CCRF-CEM leukemia was > 100 µM each time. The TGI in the assay on SNB-75 CNS and in the assay with UACC-257 melanoma was > 100 µM in each case.

Take `O=c1cc[nH]c(=O)[nH]1`: the TGI is > 1000 µM with IGROV1 ovarian; > 1000 µM with RPMI-8226 leukemia; 990 µM in the assay with NCI-H226 lung; 528 µM in the assay with HCC-2998 colon; > 950 µM in the assay on CCRF-CEM leukemia; > 953 µM in the assay with SNB-75 CNS. In addition, the TGI in the assay on NCI/ADR-RES ovarian was > 562 µM; with UACC-257 melanoma, > 1000 µM; in the assay on KM12 colon it was 846 µM; in the assay on HOP-92 NSCLC, > 1000 µM.

In the case of `CO/N=C(\C)c1ccc(Nc2nc3ccccc3c3occc23)cc1`, the TGI with IGROV1 ovarian came to 31.7 µM; in the assay with TK-10 renal, 25.4 µM; with RPMI-8226 leukemia it was 43.4 µM; in the assay with NCI-H226 lung it was 24 µM; in the assay on HCC-2998 colon it was 30.4 µM; with BT-549 breast it was 31 µM. In addition, the TGI with CCRF-CEM leukemia stood at 42.2 µM; in the assay on NCI/ADR-RES ovarian it was 32.1 µM; in the assay on UACC-257 melanoma, 31.4 µM; with KM12 colon, 36.4 µM; in the assay on HOP-92 NSCLC it was 27.6 µM.

Regarding `Cc1n(Cc2ccccc2)c2c([n+]1C)C(=O)c1ccccc1C2=O`, the TGI in the assay on IGROV1 ovarian is 0.127 µM; in the assay with TK-10 renal, 1.67 µM; in the assay on RPMI-8226 leukemia it was 39.1 µM; in the assay on NCI-H226 lung, 0.514 µM; in the assay with HCC-2998 colon, 1.45 µM; in the assay with BT-549 breast it was 0.234 µM. Also, the TGI with CCRF-CEM leukemia is > 100 µM; with SNB-75 CNS it was 0.219 µM; in the assay with NCI/ADR-RES ovarian, > 100 µM; with UACC-257 melanoma, 0.14 µM; in the assay with KM12 colon it was 0.708 µM; in the assay on HOP-92 NSCLC it was 1.49 µM.

For `CC(=O)Nc1ccc(N=Nc2c(O)c(S(=O)(=O)O)cc3cc(S(=O)(=O)O)ccc23)cc1`, the TGI in the assay on IGROV1 ovarian, in the assay on TK-10 renal, in the assay on RPMI-8226 leukemia, in the assay on NCI-H226 lung, in the assay on BT-549 breast and in the assay with SNB-75 CNS was > 100 µM throughout. Besides, the TGI in the assay on NCI/ADR-RES ovarian, in the assay on UACC-257 melanoma, in the assay on KM12 colon and in the assay with HOP-92 NSCLC was > 100 µM each time.

On to `O=C(O)C(O)C(O)C(O)C(O)c1nc2ccccc2s1` (stereo not given), for which the TGI is 24.7 µM in the assay on IGROV1 ovarian; 29.3 µM in the assay with TK-10 renal; 68.8 µM with RPMI-8226 leukemia; 66.4 µM in the assay with NCI-H226 lung; 63.2 µM in the assay on BT-549 breast; > 100 µM with CCRF-CEM leukemia. In addition, the TGI with SNB-75 CNS is 34.7 µM; with NCI/ADR-RES ovarian, > 100 µM; with UACC-257 melanoma, 30.9 µM; in the assay on KM12 colon, 71.1 µM; in the assay on HOP-92 NSCLC, 40.1 µM.

In the case of `Cc1c(O)ccc2c(O)c(NC(=O)c3ccc4c(c3)CCC(C)(C)O4)c(=O)oc12`, the TGI in the assay on IGROV1 ovarian, with TK-10 renal, with RPMI-8226 leukemia, in the assay with NCI-H226 lung, in the assay on HCC-2998 colon and in the assay with BT-549 breast was > 100 µM each time. The TGI in the assay with CCRF-CEM leukemia, in the assay with SNB-75 CNS, in the assay on NCI/ADR-RES ovarian, in the assay on UACC-257 melanoma, with KM12 colon and in the assay with HOP-92 NSCLC was > 100 µM in each case.

For the molecule `C[n+]1c2ccc(Cl)cc2nc2cc(-c3ccccc3)ccc21`, the TGI in the assay on IGROV1 ovarian is 35.4 µM; in the assay on TK-10 renal it was 43.2 µM; in the assay with NCI-H226 lung it was 44.2 µM; with HCC-2998 colon, 31.7 µM; with BT-549 breast it was 25.5 µM; in the assay on CCRF-CEM leukemia it was > 100 µM. Besides, the TGI was 80.1 µM in the assay with SNB-75 CNS, > 100 µM in the assay with NCI/ADR-RES ovarian, 32.9 µM in the assay on UACC-257 melanoma and 33.7 µM in the assay on KM12 colon.

Regarding `CC(=O)c1ccccc1NP(=O)(c1ccccc1)c1ccccc1`, the TGI is > 100 µM with IGROV1 ovarian; > 100 µM in the assay with TK-10 renal; 62.8 µM in the assay with RPMI-8226 leukemia; > 100 µM in the assay on HCC-2998 colon; > 100 µM in the assay with BT-549 breast; > 100 µM in the assay on CCRF-CEM leukemia. For the same molecule, the TGI in the assay on NCI/ADR-RES ovarian, in the assay on UACC-257 melanoma and with KM12 colon was > 100 µM throughout.
